Counter-ions that a name gives are not always drawn.
Tests used:
[1] = biological target: T1, myocardial ATP-sensitive potassium channel (SUR2A/Kir6.2) (UniProt Q61743+Q63563); assay: Rubidium efflux test on HEK293 cells transfected with SUR2A and Kir6.2 (myocardial action); type: cell-based, SUR2A from the rat, Kir6.2 from the mouse; details: HEK293 cells transfected with SUR2A/Kir6.2; KATP channels opened by rilmakalim; 25 min incubation; read-out: IC50 values for the inhibition of the rubidium efflux
T1 construct: expressed in transfected cells
Experimental: 1) Action on the SUR2A/Kir6.2 potassium channel (myocardial action) The action of the compounds on the ion transport through the myocardial ATP-sensitive potassium channel (SUR2A/Kir6.2) was determined in the rubidium efflux test system described below on human embryonic kidney cells HEK293 which were transfected with the components SUR2A and Kir6.2 (cf. Weyermann et al., Naunyn-Schmiedeberg's Arch. Pharmacol. 369, 374-381 (2004)).
The HEK293 cells were cultured at 37° C. in a humidified air atmosphere with 7% carbon dioxide in minimal essential medium with Earle's salts and L-glutamine (MEM, Gibco), which was supplemented with 10% fetal calf serum and zeozin (0.36 mg/ml) and geneticin (0.75 mg/ml). The transfection of the cells and the preparation of a cell line with stable expression of Kir6.2 from the mouse (accession number AF037313) and SUR2A from the rat (accession number D83598/L40624) were carried out as described in Giblin et al., J. Biol. Chem. 274, 22652-22659 (1999).
60 000 transfected cells per well were inoculated into a poly-D-lysine-coated 96-well microtiter plate (Greiner #650 201). After incubation for 24 h at 37° C., the cells were washed three times with buffer 1 (150 mM NaCl, 2 mM CaCl2, 0.8 mM NaH2PO4, 1 mM MgCl2, 5 mM glucose, 25 mM HEPES, pH=7.4). Subsequently, the buffer solution was replaced by 100 μl of rubidium loading buffer (buffer 1 with 5.4 mM RbCl) and the cells were incubated for a further 3 h at 37° C. The rubidium loading buffer was then removed by washing the cells three times with 200 μl each of potassium chloride wash buffer (buffer 1 with 5.4 mM KCl). After addition of the test substances (70 μl; dissolved in potassium chloride wash buffer with addition of DMSO), the KATP channels of the cells were opened by addition of 70 μl of rilmakalim (2 μM) (cf. Krause et al., Pflügers Arch. 429, 625-635 (1995)) and the cells were incubated at 37° C. for 25 min. Subsequently, the cell supernatants were transferred to a new 96-well microtiter plate and the cells were lyzed by addition of 200 μl of lysis buffer (buffer 1 with 1% Triton X-100). The concentrations of Rb^+ in the cell supernatant and in the cell lyzate were measured by means of atomic absorption spectroscopy using an Al 1200 apparatus (Aurora Instruments Ltd.).
The Rb^+ efflux rate was calculated as [Rb^+SN]/[Rb^+total], wherein [Rb^+SN] is the amount of Rb^+ in the cell supernatant and [Rb^+total] is the sum of the amounts of Rb^+ in the cell supernatant and cell lyzate. IC50 values for the inhibition of the rubidium efflux were calculated with the aid of the Hill equation.

T1 sequence (Q63563 whole entry): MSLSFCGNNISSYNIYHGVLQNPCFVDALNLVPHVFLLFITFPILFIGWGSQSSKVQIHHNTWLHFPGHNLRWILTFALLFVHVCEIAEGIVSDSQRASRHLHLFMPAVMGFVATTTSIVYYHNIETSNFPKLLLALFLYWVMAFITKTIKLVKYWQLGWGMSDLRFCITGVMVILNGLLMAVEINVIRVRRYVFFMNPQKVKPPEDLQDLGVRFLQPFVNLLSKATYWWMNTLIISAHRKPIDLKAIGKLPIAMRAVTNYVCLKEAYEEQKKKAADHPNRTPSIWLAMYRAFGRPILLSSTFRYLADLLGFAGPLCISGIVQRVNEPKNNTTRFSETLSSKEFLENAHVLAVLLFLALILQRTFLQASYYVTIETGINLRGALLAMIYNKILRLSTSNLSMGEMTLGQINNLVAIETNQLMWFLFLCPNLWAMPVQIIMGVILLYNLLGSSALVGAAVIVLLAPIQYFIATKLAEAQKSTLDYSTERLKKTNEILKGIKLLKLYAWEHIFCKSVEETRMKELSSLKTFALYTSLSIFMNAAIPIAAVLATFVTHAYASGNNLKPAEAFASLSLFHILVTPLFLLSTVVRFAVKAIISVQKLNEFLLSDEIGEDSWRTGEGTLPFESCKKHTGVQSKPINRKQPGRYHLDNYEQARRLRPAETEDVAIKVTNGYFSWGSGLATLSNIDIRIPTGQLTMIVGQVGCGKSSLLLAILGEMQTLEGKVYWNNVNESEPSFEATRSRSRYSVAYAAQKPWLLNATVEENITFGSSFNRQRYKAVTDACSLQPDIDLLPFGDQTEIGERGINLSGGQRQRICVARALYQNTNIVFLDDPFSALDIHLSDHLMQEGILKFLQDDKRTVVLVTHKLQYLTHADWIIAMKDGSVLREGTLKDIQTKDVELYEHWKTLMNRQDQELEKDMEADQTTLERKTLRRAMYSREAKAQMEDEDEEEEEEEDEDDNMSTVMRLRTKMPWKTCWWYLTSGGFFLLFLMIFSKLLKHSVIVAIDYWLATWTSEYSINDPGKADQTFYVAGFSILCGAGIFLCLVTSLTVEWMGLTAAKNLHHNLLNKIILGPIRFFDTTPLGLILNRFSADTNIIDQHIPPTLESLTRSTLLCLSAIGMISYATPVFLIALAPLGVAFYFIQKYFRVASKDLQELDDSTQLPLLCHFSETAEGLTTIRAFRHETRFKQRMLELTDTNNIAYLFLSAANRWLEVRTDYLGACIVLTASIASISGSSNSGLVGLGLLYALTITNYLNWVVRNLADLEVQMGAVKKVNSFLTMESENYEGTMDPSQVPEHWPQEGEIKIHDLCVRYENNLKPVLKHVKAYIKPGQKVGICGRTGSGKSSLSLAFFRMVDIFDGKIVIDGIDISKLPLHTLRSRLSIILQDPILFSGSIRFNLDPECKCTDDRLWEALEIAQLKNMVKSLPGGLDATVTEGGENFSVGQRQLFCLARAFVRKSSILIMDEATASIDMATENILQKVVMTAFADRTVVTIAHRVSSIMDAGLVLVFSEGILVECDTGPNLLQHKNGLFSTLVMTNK
T1 sequence (Q61743 whole entry): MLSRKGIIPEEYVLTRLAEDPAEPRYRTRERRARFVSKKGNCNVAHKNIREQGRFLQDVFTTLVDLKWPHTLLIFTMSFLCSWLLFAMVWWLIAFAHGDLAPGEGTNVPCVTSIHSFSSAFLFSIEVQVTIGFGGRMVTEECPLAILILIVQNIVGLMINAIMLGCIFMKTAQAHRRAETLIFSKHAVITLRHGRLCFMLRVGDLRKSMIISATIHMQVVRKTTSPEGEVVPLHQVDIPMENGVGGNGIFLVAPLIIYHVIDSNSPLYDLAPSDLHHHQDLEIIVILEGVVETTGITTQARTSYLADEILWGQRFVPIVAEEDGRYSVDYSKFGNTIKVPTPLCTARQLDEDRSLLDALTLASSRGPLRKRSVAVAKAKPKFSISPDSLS

Row | melting point [°C] | IC50 [1] [µM] | SMILES
1 | 199 | < 1 | Cc1nc([C@]2(OCC3CC3)CC[C@](C(=O)O)(c3ccccc3)CC2)n(CC2CC2)c1-c1ccc(F)cc1 [Example 427, Cis-4-Cyclopropylmethoxy-4-[1-cyclopropylmethyl-5-(4-fluorophenyl)-4-methyl-1H-imidazol-2-yl]-1-phenylcyclohexanecarboxylic Acid]
2 | 228 | < 1 | Cc1nc([C@]2(OCC3CC3)CC[C@](C(=O)O)(c3ccccc3)CC2)n(CC2CC2)c1C#N [Example 419, Cis-4-(5-Cyano-1-cyclopropylmethyl-4-methyl-1H-imidazol-2-yl)-4-cyclopropylmethoxy-1-phenylcyclohexanecarboxylic Acid]
3 | 159 | – | O=C(O)[C@]1(c2ccc(F)cc2)CC[C@](Oc2ncccn2)(c2ccc(F)cn2)CC1
4 | 187 | < 1 | Cc1cnc([C@]2(OCC3CC3)CC[C@](C(=O)O)(c3ccc(F)cc3)CC2)n1CC1CC1 [Example 357, Cis-4-Cyclopropylmethoxy-4-(1-cyclopropylmethyl-5-methyl-1H-imidazol-2-yl)-1-(4-fluorophenyl)cyclohexanecarboxylic Acid]
5 | 152 | < 1 | CS(=O)(=O)n1c2ccccc2cc1[C@]1(OCC2CC2)CC[C@](C(=O)O)(c2ccccc2)CC1 [Example 440, Cis-4-Cyclopropylmethoxy-4-(1-methanesulfonyl-1H-indol-2-yl)-1-phenylcyclohexanecarboxylic Acid]
6 | > 300 | < 1 | O=C(O)[C@]1(c2ccc(F)cc2)CC[C@](Oc2ccccn2)(c2ccc(F)cn2)CC1 [Example 339, Trans-1-(4-Fluorophenyl)-4-(5-fluoropyridin-2-yl)-4-(pyridin-2-yloxy)cyclohexanecarboxylic Acid]
7 | 227 | – | CS(=O)(=O)c1cccc2c1nc([C@]1(OCC3CC3)CC[C@](C(=O)O)(c3ccccc3)CC1)n2CC1CC1
8 | 185 | < 1 | Cc1c(Cl)nc([C@]2(OCC3CC3)CC[C@](C(=O)O)(c3ccc(F)cc3)CC2)n1CC1CC1 [Example 360, Cis-4-(4-Chloro-1-cyclopropylmethyl-5-methyl-1H-imidazol-2-yl)-4-cyclopropylmethoxy-1-(4-fluorophenyl)cyclohexanecarboxylic Acid]
9 | 85 | < 1 | O=C(O)[C@]1(c2ccccc2)CC[C@@](Oc2ccc(C(F)(F)F)cc2)(c2nc(-c3ccccc3)n(CC3CC3)n2)CC1 [Example 474, Cis-4-(1-Cyclopropylmethyl-5-phenyl-1H-[1,2,4]triazol-3-yl)-1-phenyl-4-(4-trifluoromethylphenoxy)cyclohexanecarboxylic Acid]
10 | 184 | < 1 | Cc1nc([C@]2(OCC3CC3)CC[C@](C(=O)O)(c3ccc(F)cc3)CC2)n(CC2CC2)c1Cl [Example 363, Cis-4-(5-Chloro-1-cyclopropylmethyl-4-methyl-1H-imidazol-2-yl)-4-cyclopropylmethoxy-1-(4-fluorophenyl)cyclohexanecarboxylic Acid]
11 | 198 | < 1 | CS(=O)(=O)c1cccc(-c2nc([C@]3(Oc4ccccc4)CC[C@@](C(=O)O)(c4ccccc4)CC3)n(CC3CC3)n2)c1 [Example 463, Trans-4-[2-Cyclopropylmethyl-5-(3-methanesulfonylphenyl)-2H-[1,2,4]triazol-3-yl]-4-phenoxy-1-phenylcyclohexanecarboxylic Acid]
12 | 206 | – | Cc1nc([C@]2(OCC3CC3)CC[C@](C(=O)O)(c3ccccc3)CC2)n(CC2CC2)c1S(C)(=O)=O (as salt: sulfonic acid salt)
13 | 237 | < 1 | O=C(O)[C@]1(c2ccc(F)cc2)CC[C@](Oc2ccccc2)(c2ccc(F)cn2)CC1 [Example 345, Trans-1-(4-Fluorophenyl)-4-(5-fluoropyridin-2-yl)-4-phenoxycyclohexanecarboxylic Acid]
14 | 209 | < 1 | O=C(O)[C@]1(c2ccc(F)cc2)CC[C@](OCC2CC2)(c2cn(CC3CC3)c(-c3ccccc3)n2)CC1 [Example 432, Trans-4-Cyclopropylmethoxy-4-(1-cyclopropylmethyl-2-phenyl-1H-imidazol-4-yl)-1-(4-fluorophenyl)cyclohexanecarboxylic Acid]
15 | 158 | < 1 | Cc1c(Br)nc([C@]2(Oc3ccccc3)CC[C@](C(=O)O)(c3ccc(F)cc3)CC2)n1CC1CC1 [Example 403, Cis-4-(4-Bromo-1-cyclopropylmethyl-5-methyl-1H-imidazol-2-yl)-4-phenoxy-1-(4-fluorophenyl)cyclohexanecarboxylic Acid]
16 | 218 | < 1 | Cc1nc([C@]2(OCC3CC3)CC[C@](C(=O)O)(c3ccccc3)CC2)n(CC2CC2)c1-c1ccccc1 [Example 426, Cis-4-Cyclopropylmethoxy-4-(1-cyclopropylmethyl-4-methyl-5-phenyl-1H-imidazol-2-yl)-1-phenylcyclohexanecarboxylic Acid]
17 | 198 | – | O=C(O)[C@]1(c2ccc(F)cc2)CC[C@@](OCC2CC2)(c2cn(CC3CC3)c(-c3ccccc3)n2)CC1

Row | melting point [°C] | IC50 [1] [µM] | SMILES
18 | 210 | < 1 | Cc1c(Br)nc([C@]2(OCC3CC3)CC[C@](C(=O)O)(c3ccc(F)cc3)CC2)n1CC1CC1 [Example 350, Cis 4-(4-Bromo-1-cyclopropylmethyl-5-methyl-1H-imidazol-2-yl)-4-cyclopropylmethoxy-1-(4-fluorophenyl)cyclohexanecarboxylic Acid]
19 | – | < 1 | COC1(c2ccc(F)cc2)CCC(C(=O)O)(c2ccc(C)cc2)CC1 (centres unmarked) [Example 239]
20 | – | < 1 | O=C(O)[C@]1(c2ccccc2)CC[C@@](OCC2CC2)(c2nccn2CC2CC2)CC1 [Example 492, Cis-Cyclopropylmethoxy-4-(1-cyclopropylmethyl-1H-imidazol-2-yl)-1-phenylcyclohexanecarboxylic Acid]
21 | – | < 1 | COC1(c2ccc(F)cc2)CCC(C(=O)O)(c2ccccc2OC(F)(F)F)CC1 (centres unmarked) [Example 238]
22 | – | < 1 | CCOC1(c2ccccc2S(C)(=O)=O)CCC(C(=O)O)(c2ccccc2)CC1 (centres unmarked) [Example 173]
23 | – | < 1 | COC1(c2cccc(F)c2)CCC(C(=O)O)(c2ccccc2)CC1 (centres unmarked) [Example 119]
24 | – | < 1 | CCOC1(c2cccc(S(C)(=O)=O)c2)CCC(C(=O)O)(c2ccccc2)CC1 (centres unmarked) [Example 167]
25 | – | < 1 | O=C(O)[C@]1(c2ccccc2)CC[C@](OCC2CC2)(c2nc(-c3ccccc3)cs2)CC1 [Example 333-2, Trans-4-Cyclopropylmethoxy-1-phenyl-4-(4-phenylthiazol-2-yl)cyclohexanecarboxylic Acid]
26 | – | < 1 | O=C(O)C1(c2ccccc2)CCC(O)(c2ccc(Cl)c(C(F)(F)F)c2)CC1 (centres unmarked) [Example 104]
27 | – | < 1 | CS(=O)(=O)c1ccccc1C1(OCC2CC2)CCC(C(=O)O)(c2ccc(F)cc2)CC1 (centres unmarked) [Example 254]
28 | – | < 1 | Cc1ccc(C2(O)CCC(C(=O)O)(c3ccccc3)CC2)cc1F (centres unmarked) [Example 100]
29 | – | < 1 | CC(C)(C)S(=O)(=O)c1cc(F)cc([C@]2(OCC3CC3)CC[C@](C(=O)O)(c3ccc(F)cc3)CC2)c1 [Example 304-3, Cis-4-Cyclopropylmethoxy-4-[3-fluoro-5-(2-methylpropane-2-sulfonyl)phenyl]-1-(4-fluorophenyl)cyclohexanecarboxylic Acid]
30 | 211 | – | O=C(O)[C@]1(c2ccc(F)cc2)CC[C@](OCC2CC2)(c2ccc(F)cn2)CC1
31 | – | < 1 | O=C(O)[C@]1(c2ccccc2)CC[C@@](OCC2CC2)(c2nc3cccnc3n2CC2CC2)CC1 [Example 448]
32 | – | < 1 | O=C(O)[C@]1(c2ccccc2)CC[C@](OCC2CC2)(c2nc3cc(Cl)ccc3n2CC2CC2)CC1 [Example 451]
33 | – | < 1 | O=C(O)[C@]1(c2ccccc2)CC[C@@](OCC2CC2)(c2cc(-c3ccccc3)ccn2)CC1 [Example 485, Cis-4-Cyclopropylmethoxy-1-phenyl-4-(4-phenylpyridin-2-yl)cyclohexanecarboxylic Acid]

Source: US8076324B2, “Di(hetero)arylcyclohexane derivatives, their preparation, their use and pharmaceutical compositions comprising them” (Sanofi-Aventis, priority 2007, dated 2011)
